Data: PubChem BioAssay (NCI)
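Protocol summary: plate cells (96-well), add compound at 5 concentrations, incubate 48 h, interpolate endpoints linearly. GI50: concentration for 50% inhibition of growth. Definition used: TGI = concentration required for complete inhibition of growth.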

Assays:
Assay in all cases: inhibition of tumour cell growth, NCI panel, 48 h
786-0 renal = test system: 786-0 renal
A498 renal = test system: A498 renal
BT-549 breast = test system: BT-549 breast
CAKI-1 renal = test system: CAKI-1 renal
CCRF-CEM leukemia = test system: CCRF-CEM leukemia
COLO 205 colon = test system: COLO 205 colon
DU-145 prostate = test system: DU-145 prostate
EKVX NSCLC = test system: EKVX NSCLC
HCC-2998 colon = test system: HCC-2998 colon
HCT-116 colon = test system: HCT-116 colon
HCT-15 colon = test system: HCT-15 colon
HL-60(TB) leukemia = test system: HL-60(TB) leukemia
HOP-62 NSCLC = test system: HOP-62 NSCLC
HOP-92 NSCLC = test system: HOP-92 NSCLC
HS 578T breast = test system: HS 578T breast
HT29 colon = test system: HT29 colon
IGROV1 ovarian = test system: IGROV1 ovarian
K-562 leukemia = test system: K-562 leukemia
KM12 colon = test system: KM12 colon
LOX IMVI melanoma = test system: LOX IMVI melanoma
M14 melanoma = test system: M14 melanoma
MALME-3M melanoma = test system: MALME-3M melanoma
MCF7 breast = test system: MCF7 breast
MDA-MB-231 breast = test system: MDA-MB-231 breast
MDA-MB-435 = test system: MDA-MB-435
MDA-MB-468 breast = test system: MDA-MB-468 breast
MOLT-4 leukemia = test system: MOLT-4 leukemia
NCI-H226 lung = test system: NCI-H226 lung
NCI-H23 lung = test system: NCI-H23 lung
NCI-H522 lung = test system: NCI-H522 lung
OVCAR-3 ovarian = test system: OVCAR-3 ovarian
OVCAR-4 ovarian = test system: OVCAR-4 ovarian
OVCAR-5 ovarian = test system: OVCAR-5 ovarian
OVCAR-8 ovarian = test system: OVCAR-8 ovarian
PC-3 prostate = test system: PC-3 prostate
RPMI-8226 leukemia = test system: RPMI-8226 leukemia
RXF 393 renal = test system: RXF 393 renal
SF-268 CNS = test system: SF-268 CNS
SF-295 CNS = test system: SF-295 CNS
SF-539 CNS = test system: SF-539 CNS
SK-MEL-2 melanoma = test system: SK-MEL-2 melanoma
SK-MEL-28 melanoma = test system: SK-MEL-28 melanoma
SK-MEL-5 melanoma = test system: SK-MEL-5 melanoma
SK-OV-3 ovarian = test system: SK-OV-3 ovarian
SN12C renal = test system: SN12C renal
SNB-19 CNS = test system: SNB-19 CNS
SNB-75 CNS = test system: SNB-75 CNS
SR leukemia = test system: SR leukemia
T-47D breast = test system: T-47D breast
TK-10 renal = test system: TK-10 renal
U251 CNS = test system: U251 CNS
UACC-257 melanoma = test system: UACC-257 melanoma
UACC-62 melanoma = test system: UACC-62 melanoma
UO-31 renal = test system: UO-31 renal

## CN1CCN(C(=O)CCN(C(=O)Oc2cc3c(c4ccccc24)[C@H](CCl)CN3C(=O)c2cc3cc(OCCCN4CCC4)ccc3[nH]2)[C@H]2CCSSC2)CC1
786-0 renal
  GI50: 0.33 µM
  TGI: 1.14 µM
A498 renal
  GI50: 0.199 µM
  TGI: 0.386 µM
BT-549 breast
  GI50: 1.02 µM
  TGI: 2.46 µM
CAKI-1 renal
  GI50: 0.15 µM
  TGI: 0.509 µM
CCRF-CEM leukemia
  GI50: 0.269 µM
  TGI: 3.51 µM
COLO 205 colon
  GI50: 0.431 µM
  TGI: 2.26 µM
DU-145 prostate
  GI50: 0.165 µM
  TGI: 1.25 µM
EKVX NSCLC
  GI50: 0.351 µM
  TGI: 1.55 µM
HCC-2998 colon
  GI50: 0.146 µM
  TGI: 0.334 µM
HCT-116 colon
  GI50: 0.234 µM
  TGI: 1.04 µM
HCT-15 colon
  GI50: 0.209 µM
  TGI: 1.35 µM
HL-60(TB) leukemia
  GI50: 0.39 µM
  TGI: 2.03 µM
HOP-62 NSCLC
  GI50: 0.146 µM
  TGI: 0.678 µM
HOP-92 NSCLC
  GI50: 0.997 µM
  TGI: 3.64 µM
HS 578T breast
  GI50: 1.23 µM
  TGI: 3.17 µM
HT29 colon
  GI50: 0.211 µM
  TGI: 0.963 µM
IGROV1 ovarian
  GI50: 0.545 µM
  TGI: 2.45 µM
K-562 leukemia
  GI50: 0.225 µM
  TGI: 1.59 µM
KM12 colon
  GI50: 0.308 µM
  TGI: 1.51 µM
LOX IMVI melanoma
  GI50: 0.0855 µM
  TGI: 0.314 µM
M14 melanoma
  GI50: 0.195 µM
  TGI: 0.653 µM
MALME-3M melanoma
  GI50: 0.232 µM
  TGI: 0.745 µM
MCF7 breast
  GI50: 0.0495 µM
  TGI: 1.43 µM
MDA-MB-231 breast
  GI50: 0.402 µM
  TGI: 1.45 µM
MDA-MB-435
  GI50: 0.285 µM
  TGI: 1.17 µM
MDA-MB-468 breast
  GI50: 0.148 µM
  TGI: 0.442 µM
MOLT-4 leukemia
  GI50: 0.231 µM
  TGI: 1.58 µM
NCI-H226 lung
  GI50: 0.148 µM
  TGI: 1.16 µM
NCI-H23 lung
  GI50: 0.0657 µM
  TGI: 0.211 µM
NCI-H522 lung
  GI50: 0.254 µM
  TGI: 1.28 µM
OVCAR-3 ovarian
  GI50: 0.426 µM
  TGI: 1.88 µM
OVCAR-4 ovarian
  GI50: 1.36 µM
  TGI: 2.78 µM
OVCAR-5 ovarian
  GI50: 0.39 µM
  TGI: 1.39 µM
OVCAR-8 ovarian
  GI50: 0.136 µM
  TGI: 0.5 µM
PC-3 prostate
  GI50: 0.378 µM
  TGI: 2.07 µM
RPMI-8226 leukemia
  GI50: 0.57 µM
  TGI: 3.87 µM
RXF 393 renal
  GI50: 0.189 µM
  TGI: 0.454 µM
SF-268 CNS
  GI50: 0.281 µM
  TGI: 1.63 µM
SF-295 CNS
  GI50: 0.107 µM
  TGI: 0.291 µM
SF-539 CNS
  GI50: 0.325 µM
  TGI: 1.2 µM
SK-MEL-2 melanoma
  GI50: 0.345 µM
  TGI: 1.06 µM
SK-MEL-28 melanoma
  GI50: 0.208 µM
  TGI: 0.502 µM
SK-MEL-5 melanoma
  GI50: 0.152 µM
  TGI: 0.336 µM
SK-OV-3 ovarian
  GI50: 0.313 µM
  TGI: 7.08 µM
SN12C renal
  GI50: 0.527 µM
  TGI: 9.02 µM
SNB-19 CNS
  GI50: 0.272 µM
  TGI: 1.65 µM
SNB-75 CNS
  GI50: 0.497 µM
  TGI: 2.32 µM
SR leukemia
  GI50: 0.0661 µM
  TGI: 0.906 µM
T-47D breast
  GI50: 0.57 µM
  TGI: 2.4 µM
TK-10 renal
  GI50: 1.56 µM
  TGI: 3.57 µM
U251 CNS
  GI50: 0.1 µM
  TGI: 0.377 µM
UACC-257 melanoma
  GI50: 0.378 µM
  TGI: 1.81 µM
UACC-62 melanoma
  GI50: 0.115 µM
  TGI: 0.294 µM
UO-31 renal
  GI50: 0.19 µM
  TGI: 0.48 µM
